SMILES strings stand for the structures. Where “and” joins values, the source holds several entries; their conditions need not be identical. Identical values can stand only once.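 Test compounds were applied to cells in 96-well plates for 48 hours at 5 doses. GI50 marks 50% less growth. TGI marks complete inhibition of growth.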

Among the test systems are 786-0 renal; COLO 205 colon; HCT-116 colon; HL-60(TB) leukemia; IGROV1 ovarian; M14 melanoma; SNB-75 CNS; HOP-62 NSCLC; OVCAR-5 ovarian.
Test in all cases: DTP human tumour cell line panel, 48 h

As usually defined, the TGI is the concentration at which net growth stops. As for `[O-]c1c(-c2ccccc2)[se]c(-c2ccccc2)[n+]1-c1ccccc1`, the TGI was 22.5 µM in the assay with 786-0 renal; 31.3 µM in the assay with COLO 205 colon; 11.4 µM in the assay with HCT-116 colon; 5.51 µM with HL-60(TB) leukemia; 13.6 µM in the assay on IGROV1 ovarian; 17.6 µM in the assay with M14 melanoma. Further, in the assay on SNB-75 CNS, the TGI is 22 µM.

The term GI50 denotes the concentration at which growth is held to half of that of the control. As to `COc1ccc(-c2ccc(=O)oc2-c2cc(OC)c(OC)c(OC)c2)cc1O`, the GI50 was less than 0.0228 µM with 786-0 renal; 2.21 µM in the assay on COLO 205 colon; 24.2 nM with HCT-116 colon; 20.8 nM in the assay with HL-60(TB) leukemia; 0.0199 µM in the assay on HOP-62 NSCLC; less than 0.01 µM in the assay with IGROV1 ovarian. Besides, the GI50 in the assay on M14 melanoma is 0.018 µM; in the assay on SNB-75 CNS, 0.0389 µM. The concentration for total growth inhibition (TGI) in the assay with 786-0 renal was 13.9 µM; in the assay with COLO 205 colon, greater than 37.5 µM; in the assay with HCT-116 colon it was greater than 100 µM; in the assay on HL-60(TB) leukemia it was 0.0705 µM; in the assay with HOP-62 NSCLC, greater than 100 µM; in the assay with M14 melanoma it was greater than 100 µM. For the same compound, the total growth inhibition concentration (TGI) in the assay with OVCAR-5 ovarian and with SNB-75 CNS was greater than 100 µM in each case.

`COc1cccc(NC(=O)c2ccc(C(F)(F)F)nc2Nc2ccc(Cl)cc2C)c1`: the GI50 in the assay with 786-0 renal is 14.7 µM; in the assay with COLO 205 colon, 10.4 µM; in the assay on HCT-116 colon it was 10900 nM; with HOP-62 NSCLC, 17.4 µM; in the assay with IGROV1 ovarian, 10.5 µM; with M14 melanoma, 16.9 µM. In addition, the GI50 with OVCAR-5 ovarian was 2.51 µM; in the assay on SNB-75 CNS, 12.3 µM. The TGI amounted to 31.4 µM with 786-0 renal; 25.8 µM in the assay with COLO 205 colon; 22.9 µM with HCT-116 colon; 32.1 µM in the assay with HOP-62 NSCLC; 22.2 µM in the assay on IGROV1 ovarian; 32.5 µM with M14 melanoma. In addition, the results for the TGI with OVCAR-5 ovarian and with SNB-75 CNS were 20 µM and 25.5 µM, respectively.

Regarding `O=S(O)CCCCSSCCCCS(=O)(O)=S`, the TGI is greater than 100 µM with 786-0 renal; greater than 100 µM with COLO 205 colon; greater than 100 µM with HCT-116 colon; greater than 100 µM in the assay on HOP-62 NSCLC; greater than 100 µM with IGROV1 ovarian; 32.1 µM with M14 melanoma. Further, the TGI in the assay on OVCAR-5 ovarian is greater than 100 µM; with SNB-75 CNS it was 92.1 µM.

In the case of `O=C1c2ccccc2C(=O)c2c1c(NCCNCCO)c1cc[nH]c1c2NCCNCCO`, the GI50 is 3.87 µM in the assay on 786-0 renal; 2.48 µM in the assay on COLO 205 colon; 1270 nM in the assay with HCT-116 colon; 2900 nM in the assay on HL-60(TB) leukemia; 2.6 µM in the assay on HOP-62 NSCLC; 9.23 µM with IGROV1 ovarian. Moreover, the values for the GI50 with M14 melanoma, in the assay on OVCAR-5 ovarian and in the assay on SNB-75 CNS were 7.27 µM, 3.96 µM and 9.77 µM, respectively. The TGI in the assay on 786-0 renal is greater than 36.7 µM; in the assay on COLO 205 colon it was greater than 33.3 µM; in the assay on HCT-116 colon it was greater than 21.5 µM; with HL-60(TB) leukemia, greater than 21 µM; in the assay on HOP-62 NSCLC, greater than 22.2 µM; in the assay on IGROV1 ovarian, greater than 100 µM. Moreover, the TGI with M14 melanoma is greater than 55.1 µM; with OVCAR-5 ovarian, greater than 31.3 µM; in the assay on SNB-75 CNS it was greater than 100 µM.

For `NC(N)=NS(=O)(=O)c1ccc(NC(=O)c2ccc(Cl)c3c(Nc4ccc(S(=O)(=O)N=C(N)N)cc4)c4ccccc4nc23)cc1`, the TGI with 786-0 renal, in the assay on COLO 205 colon, in the assay on HL-60(TB) leukemia, in the assay with HOP-62 NSCLC, with IGROV1 ovarian and in the assay on M14 melanoma was greater than 100 µM in each case. In addition, the figures for the TGI with OVCAR-5 ovarian and in the assay on SNB-75 CNS were greater than 100 µM and 98.5 µM, respectively.

`CNC1=C(Br)C(=O)C2=C(C1=O)C1C3=C(C(=O)C=CC3=O)C2c2ccccc21` (configuration not stated): the GI50 is 2.12 µM with 786-0 renal; 4.07 µM with COLO 205 colon; 1440 nM with HCT-116 colon; 2180 nM in the assay with HL-60(TB) leukemia; 7.68 µM in the assay with HOP-62 NSCLC; 4.69 µM in the assay with IGROV1 ovarian. The values for the GI50 in the assay with M14 melanoma, in the assay on OVCAR-5 ovarian and in the assay on SNB-75 CNS were 1.98 µM, 6.96 µM and 3.88 µM, respectively. Also, the TGI with 786-0 renal was 4.57 µM; with COLO 205 colon, 35.4 µM; with HCT-116 colon it was 2.86 µM; in the assay with HL-60(TB) leukemia, greater than 100 µM; in the assay on HOP-62 NSCLC, 23.6 µM; in the assay with IGROV1 ovarian, 18 µM. For the same compound, the results for the TGI with M14 melanoma, in the assay with OVCAR-5 ovarian and in the assay on SNB-75 CNS were 11.5 µM, 31.4 µM and 24.5 µM, respectively.

Turning to `O=C(Oc1ccccc1Cl)c1cccnc1Nc1ccnc(C(F)(F)F)c1`, the GI50 is 14.7 µM with 786-0 renal; 26.6 µM with COLO 205 colon; 2130 nM with HCT-116 colon; 19 µM with HOP-62 NSCLC; 10.7 µM in the assay on IGROV1 ovarian; 39.6 µM in the assay on OVCAR-5 ovarian. Moreover, the TGI with 786-0 renal is 31.4 µM; with COLO 205 colon, 84.5 µM; with HCT-116 colon, 4.35 µM; with HOP-62 NSCLC, 37 µM; in the assay with IGROV1 ovarian, 30.4 µM; in the assay with OVCAR-5 ovarian, greater than 100 µM.

In the case of `NC(CCc1nc(-c2ccccc2)cs1)C(=O)O` (configuration not stated), the TGI in the assay on 786-0 renal, in the assay on COLO 205 colon, in the assay on HCT-116 colon, in the assay with HL-60(TB) leukemia, in the assay on IGROV1 ovarian and in the assay on M14 melanoma was greater than 100 µM each time. Besides, the concentration for total growth inhibition (TGI) in the assay with SNB-75 CNS was greater than 100 µM.

`CC(C)[C@H](COC(C)(C)C)N=CN1CSc2ccccc21`: the TGI was greater than 100 µM in the assay on 786-0 renal; 39.4 µM in the assay with COLO 205 colon; 79.2 µM in the assay on HCT-116 colon; 57.1 µM in the assay with HL-60(TB) leukemia; greater than 100 µM with HOP-62 NSCLC; greater than 100 µM in the assay on IGROV1 ovarian. Besides, the TGI with M14 melanoma is greater than 100 µM; in the assay on OVCAR-5 ovarian, greater than 100 µM; in the assay on SNB-75 CNS it was 77.1 µM.

Consider `Cc1ccc(S(=O)(=O)NC(C)C(=O)O)cc1` (configuration not stated), for which the TGI in the assay with 786-0 renal, with COLO 205 colon, with HL-60(TB) leukemia, with IGROV1 ovarian, in the assay on M14 melanoma and with OVCAR-5 ovarian was greater than 100 µM in each case. In addition, in the assay with SNB-75 CNS, the TGI is greater than 100 µM.

`C=CCCC12CCCC(=O)C1Sc1ccc3ccccc3c12` (configuration not stated): the TGI in the assay with 786-0 renal is 48.2 µM; in the assay with COLO 205 colon, 29.1 µM; in the assay on HL-60(TB) leukemia it was 44.6 µM; with HOP-62 NSCLC, 53.5 µM; with IGROV1 ovarian, greater than 100 µM; with M14 melanoma, 31.1 µM. Further, the TGI was determined as 93.5 µM with OVCAR-5 ovarian and 82.9 µM in the assay with SNB-75 CNS.

Turning to `NCC(=O)OCN1C(=O)C2C3C=CC(C2C1=O)C1C2C(=O)N(COC(=O)CN)C(=O)C2C31` (configuration not stated), the TGI in the assay with 786-0 renal is 40.7 µM and 36.8 µM; with COLO 205 colon, 36.4 µM and 32.2 µM; in the assay with HCT-116 colon, 33.6 µM and 30.7 µM; in the assay on HL-60(TB) leukemia, 28.5 µM and 37.4 µM; with HOP-62 NSCLC, greater than 100 µM; in the assay on IGROV1 ovarian, greater than 100 µM. Moreover, the TGI in the assay on M14 melanoma was 35.3 µM and 33.9 µM; in the assay with OVCAR-5 ovarian, greater than 100 µM; with SNB-75 CNS it was 62.6 µM and > 100 µM. For the same compound, the GI50 in the assay on OVCAR-5 ovarian is 42.1 µM and 90 µM.

Take `COC(=O)c1c(C(=O)OC)c(C(=O)OC)c(C(=O)OC)c1C(=O)OC`: the TGI in the assay on 786-0 renal, in the assay with COLO 205 colon, in the assay with HL-60(TB) leukemia, in the assay with HOP-62 NSCLC, in the assay on IGROV1 ovarian and in the assay with M14 melanoma was greater than 100 µM throughout. In addition, the TGI in the assay on OVCAR-5 ovarian and with SNB-75 CNS was greater than 100 µM in each case.

For the compound `COC(=O)/C1=C/C2CC(/C=C(/c3ccccc3)C(=O)O1)C2`, the TGI is 89.1 µM in the assay with 786-0 renal; 41.7 µM in the assay with COLO 205 colon; 56.6 µM with HCT-116 colon; 60.6 µM with HL-60(TB) leukemia; 95 µM in the assay with HOP-62 NSCLC; greater than 100 µM in the assay with IGROV1 ovarian. The TGI was greater than 100 µM with M14 melanoma and 35.4 µM with SNB-75 CNS.

As for `CC(=O)c1ccc(NCn2nc(-c3ccccc3O)oc2=S)cc1`, the GI50 in the assay with 786-0 renal is 74.1 µM; in the assay on COLO 205 colon, 43.4 µM; in the assay on HCT-116 colon, greater than 100000 nM; in the assay with HL-60(TB) leukemia, greater than 100000 nM; in the assay with HOP-62 NSCLC it was greater than 100 µM; in the assay with IGROV1 ovarian it was greater than 100 µM. The GI50 in the assay with M14 melanoma and with OVCAR-5 ovarian was greater than 100 µM throughout. The TGI in the assay on 786-0 renal, in the assay with COLO 205 colon, with HCT-116 colon, with HL-60(TB) leukemia, in the assay with HOP-62 NSCLC and in the assay on IGROV1 ovarian was greater than 100 µM each time. Further, the TGI in the assay on M14 melanoma and with OVCAR-5 ovarian was greater than 100 µM in each case.

On to `Cc1occc1C(=S)Nc1ccc(Cl)c(C(=O)OCC2CC2)c1`, for which the TGI was greater than 100 µM with 786-0 renal; greater than 100 µM with COLO 205 colon; greater than 100 µM with HCT-116 colon; 75.3 µM with HL-60(TB) leukemia; greater than 100 µM with IGROV1 ovarian; greater than 100 µM in the assay on M14 melanoma. For the same compound, the TGI is greater than 100 µM in the assay with OVCAR-5 ovarian and 70.1 µM in the assay with SNB-75 CNS.

On to `Nc1nc(N)c2ncn(Cc3c(Cl)cccc3Cl)c2n1`, for which the concentration for total growth inhibition (TGI) in the assay with 786-0 renal, in the assay on COLO 205 colon, in the assay on HCT-116 colon, with HOP-62 NSCLC, in the assay on IGROV1 ovarian and in the assay on M14 melanoma was greater than 100 µM each time. Moreover, the TGI was greater than 100 µM in the assay on OVCAR-5 ovarian and 48.7 µM in the assay with SNB-75 CNS.
